Here are results for 88 molecules from a melting point compilation (Tetko et al.; mined from patent text by program, amines drawn as free bases though some values may be those of a salt).

Usually melting point stands for the temperature, or range, at which the solid turns liquid.

Structures are written as SMILES.

Turning to `O=C(Nc1ccccc1-c1nnn[nH]1)C(=O)N1CCC(Cc2ccc(F)cc2)CC1`, the melting point lay in the range of 107 to 109 °C.
Molecule `CC1(C)CCC(C)(C)c2cc(N(Cc3ccc(F)cc3)C(=O)Nc3ccc(C(=O)O)cc3)ccc21` returned a melting point of 143 to 146 °C.
`Cc1coc2c1C(=O)CC(c1cccc(Cl)c1Cl)C2` (stereo not drawn) displayed a melting point of 116 to 117 °C.
To `CC(C)N(Cc1cccs1)S(=O)(=O)N[C@@H](Cc1ccc(NC(=O)c2cc(Cl)cc(Cl)c2)cc1)C(=O)O` belongs 122 °C; to `CCCc1c(OCCCCCCc2cccc(OCCCCCO)c2CCC(=O)O)ccc2c1OCCC2=O`, 102 to 103 °C.
The molecule `CCOC(=O)COc1cc(-n2c(=O)cc(C(F)(F)F)n(C)c2=O)c(F)cc1Cl` registered a melting point of 98 to 101 °C.
For `CC1(C)C2CC[C@]1(C)C(=O)C(C(=O)Nc1ccc(Cl)c(C(F)(F)F)c1)C2=O` (stereo partly drawn), the melting point is 118 to 120 °C.
As for `Cc1ccc(C(O)c2nc3c(cc2C)CCCCC3)cc1` (stereo not drawn), the melting point lay within 143 to 145 °C.
The molecule `CNCC(O)CN1CCN(CC(O)Cn2c3ccc(Br)cc3c3cc(Br)ccc32)CC1` (stereo not drawn) gave a melting point of 65 to 75 °C.
For `O=c1[nH]c(N[N+](=O)[O-])ncc1Cc1ccncc1`, the melting point lay in the range of 228 to 229 °C.
The molecule `O=Cc1cc(Br)ccc1N1CC=CC1` gave a melting point of 88.2 to 89.2 °C.
To `CC1(C)OCCC2C(C3(O)CCSC3)C(=O)N21` (stereo not drawn) belongs 113 to 115 °C.
Consider `NNC(=O)c1cc(N2CCN(c3ccc([N+](=O)[O-])cc3)CC2)ccn1`, for which the melting point lay within 230 to 232 °C.
`Nc1cc(Cl)c(S(N)(=O)=O)cc1N` displayed a melting point of 216 °C.
As to `CCOC(=O)Nc1cc(=O)c2cc(Oc3ccccc3)c(NS(C)(=O)=O)cc2o1`, the melting point was in the range of 207 to 209 °C.
As to `O=C(Cc1ccccc1Nc1c(Cl)cccc1Cl)OCCOCCOCCO[N+](=O)[O-]`, the melting point came to 68 °C.
To `CCc1c(OCc2ccccc2)nc(OCc2ccccc2)nc1C(=O)c1cc(C)cc(C#N)c1` belongs 123 to 124 °C.
In turn, `O=c1[nH]c2ccc(O)cc2c(=O)n1CCN1CCC(c2c[nH]c3ccccc23)CC1` had a melting point of 258 °C.
`CCCn1nc2c(NC)nc3ccccc3c2c1N` registered a melting point of 200 to 201 °C.
Take `CCN1CC(CCN(C)C)Oc2ncccc2C1=S` (stereo not drawn): the melting point turned out to be 73 °C.
To `O=C(O)c1ccc2ccc(C(F)(F)F)nc2c1O` belongs 209 to 211 °C.
As to `COc1cc(C(F)(F)F)cc(OC)c1-c1csc(NC(=O)c2cc3ccccc3n2CC(=O)OC(C)(C)C)n1`, the melting point is 214 to 216 °C.
Turning to `CCOC(=O)c1ccc(NCCCc2c(N(C(C)=O)C(C)=O)nc(NC(C)=O)[nH]c2=O)cc1`, the melting point lay within 197 to 198 °C.
As to `S=c1n(CN2CCCC2)nc(-c2ccncc2)n1-c1ccccc1`, the melting point came to 139 °C.
In turn, `O=C(O)CN(CC(=O)O)CC(=O)Nc1c(F)c(F)c(F)c(F)c1F` returned a melting point of 182 to 183 °C.
Regarding `CC(C)(C)c1cc(C2=CCOCC2)c(O)c(C(C)(C)C)c1`, the melting point lay in the range of 135 to 139 °C.
As for `N#Cc1ccc(C(=O)CC2C=COc3ccccc32)cc1` (stereo not drawn), the melting point was 111 °C.
Consider `CN(C(=O)CCN1CCC(C(O)(c2ccc(F)cc2)c2ccc(F)cc2)CC1)c1ccccc1`, for which the melting point lay within 73 to 75 °C.
The result for `CCOc1nc(C(=O)O)ccc1CN` reads 226 to 228 °C.
On to `O=C(OC1c2nccnc2C(=O)N1c1ccc2ccc(Cl)cc2n1)N1CCNCC1` (stereo not drawn), for which the melting point is 242 °C.
The molecule `O=S(=O)(c1c(-c2cc(Cl)cc(Cl)c2)[nH]c2c(Cl)cc(Cl)cc12)C(F)(F)F` displayed a melting point of 300 to 302 °C.
Take `CC(=O)Nc1cccc(OCc2cc([N+](=O)[O-])ccc2C(=O)O)c1`: the melting point stood at 225 °C.
In turn, `CON(C)Cc1nc2c(N)nc3cc(-c4cccnc4)cnc3c2n1CC(C)(C)O` returned a melting point of 187 to 189 °C.
As to `c1ccc(N2CCN(CC[C@H]3CC[C@H](c4c[nH]c5ccccc54)CC3)CC2)nc1`, the melting point is 147 to 148 °C.
For `CCCCc1c(C(=O)c2ccc(O)cc2)[nH]c2ccc([N+](=O)[O-])cc12`, the melting point worked out at 181 °C.
Turning to `Cc1c(Cl)cc(NC(=O)C(=O)Nc2cc(Cl)c(C)c(Cl)c2O)c(O)c1Cl`, the melting point amounted to 330 °C.
The molecule `COc1cc2cc3c(Nc4ccc(Oc5ccccc5)c(Cl)c4)c(C#N)cnc3cc2cc1OCCN1CCOCC1` returned a melting point of 190 to 194 °C.
The result for `C=CCOc1ccc2c(=O)c(C)c(-c3ccccc3)oc2c1C(=O)C=Cc1cc(OC)c(OC)c(OC)c1` reads 121 to 123 °C; that for `CCCCCCCCCCCCCCCCNc1ccc(C(=O)NN)cc1`, 154 to 156 °C.
The molecule `COC(=O)C(C)Oc1ccc(NC(=O)OCCO)cc1` (stereo not drawn) gave a melting point of 90.5 to 92.8 °C.
`CN(c1cccc2cc(C3=NCC(CN4CCS(=O)CC4)S3)[nH]c12)S(=O)(=O)c1nccn1C` (stereo not drawn) gave a melting point of 161 to 162 °C.
Regarding `CC(=NO)c1ccnc(N)c1`, the melting point lay in the range of 215 to 217 °C.
In turn, `O=C(O)Cc1c(-c2ccccc2)nn(-c2cccnc2)c1-c1ccccc1` registered a melting point of 185 to 187 °C.
The result for `Cc1nc(N2CCN(CCc3c[nH]c4ccccc34)C2=O)sc1C(=O)NCc1ccccc1` reads 215 to 217 °C; that for `CC1(c2ccc(O)cc2)Cc2cc(OCC(=O)O)c(Cl)c(Cl)c2C1=O` (stereo not drawn), 220 to 222 °C; that for `COc1cc(C(=O)N2Cc3cccn3Cc3ccccc32)ccc1-c1ccccc1C(F)(F)F`, 146 to 148 °C.
For the molecule `COc1ccc2ccccc2c1CC#N`, the melting point was 95.2 to 95.6 °C.
The result for `CCCCCCCCCCCc1nnc2n1-c1ccccc1C(c1ccc(Cl)cc1)NC2` (stereo not drawn) reads 94 to 95 °C.
In the case of `CCCC(=O)c1cnc2nc(C)c(OCC)cc2c1O`, the melting point fell in the range of 240 to 241 °C.
`C#CCOCCOC(=O)COc1ccc(Cl)c2cccnc12`: the melting point was found to be 53 °C.
`O=C(c1ccc(F)cn1)N1CCC[C@H](c2noc(-c3ccc(F)cc3)n2)C1` came in with a melting point of 93 to 95 °C.
To `O=C(O)c1ccccc1Nc1ccnn1Cc1ccccc1` belongs 190 °C.
For `C/C(=C/C(=O)O)c1ccn(-c2c(C)cccc2C)c1`, the melting point lay within 78 to 80 °C.
`O=C(O)C(=O)c1ccc(F)c(Br)c1` had a melting point of 68 to 73 °C.
The molecule `CCOC(=O)C1=C(C)Nc2nc(N)nc(N)c2C1c1ccc(Cl)c(Cl)c1` (stereo not drawn) returned a melting point of 244 °C.
The result for `CC(=O)OCC(=O)COC(C)=O` reads 45.5 to 46.6 °C; that for `OCC1(CO)COC2(CCCCC2)N1`, 117 to 119 °C.
To `NSc1nc(-c2ccccc2Cl)ns1` belongs 143 to 145 °C; to `Nc1cc(Br)c(F)c(Cl)c1F`, 86 to 88 °C.
`Cc1ccc(-c2cc(=S)ss2)nn1` came in with a melting point of 242 °C.
Turning to `O=c1[nH]c(-n2cccn2)nc2ccccc12`, the melting point fell in the range of 148 to 150 °C.
`CCCCc1nc2c(N)nc3ccccc3c2n1CCCNS(=O)(=O)c1ccccc1` displayed a melting point of 210 to 212 °C.
Take `O=C(c1cc(-c2ccccc2)c(=O)n2c1-c1sccc1C2)N1CCOCC1`: the melting point was in the range of 225 to 227 °C.
`O=[N+]([O-])c1cc(C(F)(F)F)ccc1C(Br)c1cnoc1C1CC1` (stereo not drawn) yielded a melting point of 146 °C.
For the molecule `COc1sc(-c2csc(C(N)=O)n2)c(Cl)c1C`, the melting point was in the range of 201 to 203 °C.
Molecule `CCCCCCCCCCCCCCCCOCC(CO)OCCCCCCCCCCCCCC` (stereo not drawn) registered a melting point of 42 to 43 °C.
Molecule `O=C(CBr)C(O)(CBr)c1ccc(F)cc1` (stereo not drawn) gave a melting point of 90 °C.
Molecule `CCOC(=O)c1ccc(-c2ccc(-c3ccccc3OCOC)c(-c3ccc4c(c3)C(C)(C)CCC4(C)C)c2)cc1` registered a melting point of 132 to 135 °C.
Take `Cn1c(C(F)(F)F)cc(=O)n(-c2cc(OCCBr)c(Cl)cc2F)c1=O`: the melting point was 125 to 127 °C.
With `CCOC(=O)Cc1ccc(NC(=O)C(Cc2ccccc2)NS(=O)(=O)c2ccc(Cl)cc2)cc1` (racemic), the melting point lay in the range of 148 to 150 °C.
Turning to `CC1(CO)C(=O)N(c2ccc(C#N)c(C(F)(F)F)c2)C(=O)N1CC#N` (stereo not drawn), the melting point was determined as 171 °C.
On to `CCc1nn(CCO)c(CC)c1Oc1cc(F)cc(-n2cccn2)c1`, for which the melting point is 120 to 122 °C.
Regarding `CN(C)CCN(C)CC(=O)N1c2ccccc2N(C)C(=O)c2cnc(-c3ccccc3)nc21`, the melting point was 125 °C.
In turn, `CC[C@@H](CNc1ccc(C)cc1C)NS(=O)(=O)c1c(N)cc(Cl)cc1Cl` displayed a melting point of 151 °C.
For the molecule `Cc1c(O)cccc1C(=O)N[C@@H](Cc1ccccc1)[C@H](O)C(=O)N1CSC(C)(C)[C@H]1C(=O)N[C@H]1C=CCCC1`, the melting point is 193 to 195 °C.
Molecule `CCCc1c(OCC(O)CSc2nc3ccc(C(=O)O)cc3[nH]2)ccc(C(C)=O)c1O` (stereo not drawn) gave a melting point of 133 to 135 °C.
The result for `CCCCCCCCCCCCC(=O)c1cn(CCCC(=O)O)c2ccccc12` reads 76 to 78 °C; that for `CC(=O)Nc1ccccc1-c1ccc(F)cc1`, 123 to 124 °C; that for `COC[C@H]1CN(c2ccc([C@H]3CC[C@H](OCC#N)CC3)cc2)C(=O)O1`, 43 to 45 °C.
Regarding `Cc1nc2c(-c3ccc(-c4ccccc4)cc3)nc3ccc(F)cc3c2c(=O)o1`, the melting point lay within 188 to 189 °C.
The molecule `Cc1cc2c(cc1O)C(C)(C)CC1(CC(C)(C)c3cc(OCCCO)c(C)cc3O1)O2` (stereo not drawn) yielded a melting point of 175 to 177 °C.
To `CCN(C(=O)OC(C)(C)C)C1CC=C(c2c[nH]c3ccc(N)cc23)CC1` (stereo not drawn) belongs 87 to 89 °C.
The molecule `O=[N+]([O-])c1cnc2ccc(Sc3ccccc3)cn12` showed a melting point of 108 to 109 °C.
In turn, `O=S(=O)(Nc1cnc(-n2ccnc2)nc1NCc1ccc(Br)cc1)c1ccc(Cl)cc1` showed a melting point of 183 to 185 °C.
Consider `COc1ccc(-c2cc(=O)c3c(O)c(I)c(OC)cc3o2)cc1`, for which the melting point lay in the range of 205 to 207 °C.
Turning to `CCOC(=O)C1=C(COCC(C)(O)c2ccco2)NC(C)=C(C(=O)OC)C1c1cccc(Cl)c1Cl` (stereo not drawn), the melting point was in the range of 88 to 90 °C.
The result for `CCOC(=O)CNC(=O)Nc1ccc(C(=O)/C=C/c2ccc(-c3cccs3)cc2)cc1` reads 209 to 212 °C.
With `O=C(O)Cc1cccc(OCc2ccccc2)c1`, the melting point was 127 to 129 °C.
